Data published in ChEMBL document CHEMBL4266055, “Optimization of Phenyl Indole Inhibitors of the AAA+ ATPase p97” (ACS Med Chem Lett, 2018).
pEC50, pIC50: −log10 of the molar value. In brackets after ≈: the same amount, converted by molar mass.

How the values were obtained:
[1] = molecular target: T1, Transitional endoplasmic reticulum ATPase (Homo sapiens, UniProt P55072)
Description: Inhibition of recombinant full length human p97 (1 to 806 residues) expressed in Escherichia coli Rosetta 2 (DE3) using 100 uM ATP as substrate after 90 mins by luminescence assay

[2] = molecular target: T1, Transitional endoplasmic reticulum ATPase; experiment: Inhibition of human p97 in human HeLa cells harboring UbG76V-GFP assessed as accumulation of UbG76V after 1 hr by microscopic analysis; format: cell-based
[3] = Aqueous solubility of the compound in pH 7.4 buffer by UV/Vis spectroscopic analysis; format: physicochemical
[4] = Half life in mouse liver microsomes at 10 uM in presence of NADPH/G6PD by LC-MS/MS analysis; format: ADME, microsome
[5] = molecular target: T1, Transitional endoplasmic reticulum ATPase; experiment: Inhibition of human p97 in human HeLa cells harboring UbG76V-GFP assessed as accumulation of UbG76V after 6 hrs by microscopic analysis; format: cell-based
[6] = test system: Panel NCI-60 (60 carcinoma cell lines); experiment: Growth inhibition of human NCI60 cells after 48 hrs by sulforhodamine B assay; format: functional
[7] = Half life in human liver microsomes at 10 uM in presence of NADPH/G6PD by LC-MS/MS analysis; format: ADME, microsome
[8] = molecular target: T1, Transitional endoplasmic reticulum ATPase; experiment: Inhibition of recombinant full length human p97 (1 to 806 residues) expressed in Escherichia coli Rosetta 2 (DE3) using 20 uM ATP as substrate after 90 mins by luminescence assay

T1 sequence (P55072 whole entry): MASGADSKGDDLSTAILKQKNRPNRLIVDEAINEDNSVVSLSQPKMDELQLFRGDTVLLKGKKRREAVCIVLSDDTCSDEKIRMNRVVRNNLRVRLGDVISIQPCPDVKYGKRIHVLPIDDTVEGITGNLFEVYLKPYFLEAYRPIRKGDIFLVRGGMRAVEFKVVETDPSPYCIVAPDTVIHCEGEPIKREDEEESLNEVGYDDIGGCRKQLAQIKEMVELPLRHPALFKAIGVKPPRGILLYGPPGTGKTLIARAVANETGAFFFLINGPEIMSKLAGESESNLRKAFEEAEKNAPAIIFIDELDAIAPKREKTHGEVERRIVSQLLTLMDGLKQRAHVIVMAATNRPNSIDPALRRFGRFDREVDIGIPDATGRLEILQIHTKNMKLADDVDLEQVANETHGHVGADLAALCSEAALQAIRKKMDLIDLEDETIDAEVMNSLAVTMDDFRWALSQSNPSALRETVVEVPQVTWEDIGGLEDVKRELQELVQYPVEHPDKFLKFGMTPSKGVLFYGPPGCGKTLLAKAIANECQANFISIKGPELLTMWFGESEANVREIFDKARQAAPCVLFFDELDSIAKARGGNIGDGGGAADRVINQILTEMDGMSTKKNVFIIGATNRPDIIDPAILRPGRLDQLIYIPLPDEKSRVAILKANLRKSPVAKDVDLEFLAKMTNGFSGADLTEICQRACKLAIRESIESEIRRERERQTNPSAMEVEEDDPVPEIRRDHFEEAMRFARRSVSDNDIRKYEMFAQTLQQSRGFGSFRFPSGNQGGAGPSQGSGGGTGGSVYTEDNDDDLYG

## c1ccc(CCNC2CCN(c3cccc(-c4cc5ccccc5[nH]4)c3)CC2)nc1
[1]
  pIC50: 5.98

## CC(C)N1CCN(CCCNC2CCN(c3cccc(-c4cc5ccccc5[nH]4)c3)CC2)CC1
[1]
  pIC50: 6.42

## CC(C)N1CCN(C2CCN(c3cccc(-c4cc5cc(F)ccc5[nH]4)c3)CC2)CC1
[1]
  pIC50: 5.32

## CN1CCN(C2(CNC3CCN(c4cccc(-c5cc6cc(F)ccc6[nH]5)c4)CC3)CCC2)CC1
[2]
  pEC50: 4.82
[3]
  solubility: 330 µM (≈ 157 µg/mL)
[4]
  t1/2: 4.62 h
[5]
  pEC50: < 4.40
[6]
  GI50: 2000 nM
[1]
  pIC50: 7.70
[7]
  t1/2: 7.92 h

## c1ccc(CNC2CCN(c3cccc(-c4cc5ccccc5[nH]4)c3)CC2)nc1
[1]
  pIC50: 5.97

## CC(C)N1CCN(CCNC2CCN(c3cccc(-c4cc5cc(F)ccc5[nH]4)c3)CC2)CC1
[1]
  pIC50: 7.15

## CCN1CCN(CCNC2CCN(c3cccc(-c4cc5ccccc5[nH]4)c3)CC2)CC1
[1]
  pIC50: 6.70

## Cn1ncnc1CCNC1CCN(c2cccc(-c3cc4ccccc4[nH]3)c2)CC1
[8]
  pIC50: 5.62
[1]
  pIC50: 6.00

## CC(C)N1CCN(C(=O)CCNC2CCN(c3cccc(-c4cc5cc(F)ccc5[nH]4)c3)CC2)CC1
[1]
  pIC50: 6.72

## CN(C)CCNC1CCN(c2cccc(-c3cc4cc(F)ccc4[nH]3)c2)CC1
[1]
  pIC50: 6.10

## c1cc(-c2cc3ccccc3[nH]2)cc(N2CCC(NCCN3CCNCC3)CC2)c1
[1]
  pIC50: 6.48

## c1ccc(CCNC2CCN(c3cccc(-c4cc5ccccc5[nH]4)c3)CC2)cc1
[1]
  pIC50: 5.58

## CC(C)N1CCN(C2(CNC3CCN(c4cccc(-c5cc6cc(F)ccc6[nH]5)c4)CC3)CCC2)CC1
[1]
  pIC50: 7.00

## CC(C)N1CCC(NC2CCN(c3cccc(-c4cc5cc(F)ccc5[nH]4)c3)CC2)CC1
[2]
  pEC50: 4.72
[3]
  solubility: 380 µM (≈ 165 µg/mL)
[4]
  t1/2: 6.43 h
[5]
  pEC50: < 4.40
[6]
  GI50: 1580 nM
[1]
  pIC50: 7.30
[7]
  t1/2: 9.48 h

## Cc1cc(OCc2nnc(SC3CCCC3)n2-c2cccnc2)ccc1-c1ccc(S(C)(=O)=O)cc1
[3]
  solubility: 86 µM (≈ 44.8 µg/mL)
[4]
  t1/2: < 0.167 h
[7]
  t1/2: < 0.167 h

## CC(C)(C)N1CCN(CCNC2CCN(c3cccc(-c4cc5ccccc5[nH]4)c3)CC2)CC1
[1]
  pIC50: 6.68

## CC(C)N1CCN(C2(CNC3CCN(c4cccc(-c5cc6cc(F)ccc6[nH]5)c4)CC3)COC2)CC1
[1]
  pIC50: 7.05

## CN1CCN(CCNC2CCN(c3cccc(-c4cc5ccccc5[nH]4)c3)CC2)CC1
[1]
  pIC50: 6.55
